Publication PMC10650108 (Molecules, 2023)
Entries after “also recorded” stand apart in the source; their conditions may differ. Blank lines part the entries; values can stand above or below the sequence they belong to. Ends that are not written are not given here.

Legend:
[1] = In vitro metabolic incubation with human skin S9, UHPLC-HRMS metabolite profiling; assay type: in vitro ADME; details: human skin S9 0.189 mg/mL, 37 °C, 2 h
Protocol: (§1) Mixed-gender human liver microsomes (10-Donor Pool, total protein concentration of 20 mg/mL) and mixed-gender human skin S9 (3-Donor Pool, total protein concentration of 1.89 mg/mL) were purchased from BioreclamationIVT (Westbury, NY, USA). Phosphate buffered saline (PBS, pH 7.2~7.4) was obtained from Sangon Biotech Co., Ltd. (Shanghai, China). BPC-157 (HPLC purity > 99%) and (Deamino-cysl, val4, D-arg8)-Vasopressin (DCVDV, internal standard, ISTD) were purchased from Alta Scientific Co., Ltd. (Tianjin, China). ^13C6,^15N2-BPC-157 (labeled BPC-157, HPLC purity > 98%) was purchased from Synpeptide Co., Ltd. (Nanjing, China). BPC-157 (2–15) free acid, BPC-157 (1–13) free acid, BPC-157 (2–13) free acid, BPC-157 (1–12) free acid, BPC-157 (3–15) free acid, BPC-157 (1–8) free acid, and BPC-157 (2–8) free acid were synthesized by Alta Scientific Co., Ltd. (Tianjin, China). MgCl2 was from Beyotime Biotechnology (Shanghai, China). Nicotinamide adenine dinucleotide phosphate (NADPH) was purchased from Vetec (Shanghai, China). Acetonitrile (ACN), methanol (MeOH), and formic acid (FA) were of LC-MS grade and were obtained from Thermo Fisher Scientific (San Jose, CA, USA). Milli-Q purified water (MerckMillipore, Vimodrone, Milan, Italy) was used for sample preparation, reference material dilution, and LC mobile phase preparation. […]

[2] = In vitro metabolic incubation with human liver microsomes, UHPLC-HRMS metabolite profiling; assay type: in vitro ADME; details: 37 °C, 2 h
Protocol: as §1

[3] = in vitro plasma metabolism; details: cited from earlier work
[4] = mixed-gender human skin S9 (3-Donor Pool) in PBS; details: 37 °C, up to 2 h
[5] = mixed-gender human liver microsomes (10-Donor Pool) in PBS with MgCl2 and NADPH; details: 37 °C, up to 2 h

Sequence: GKPADDAGLV [BPC-157 (6–15) free acid (M7), BPC-157 (6–15) free acid]
- Detection of metabolite in the human skin S9 incubation system (in words) [1]: only detected in the human skin S9 incubation system

Sequence: EPPPGKPADDAGLV [BPC-157 (2–15) free acid (M8), BPC-157 (2–15) free acid]
- Relative response of metabolites (relative abundance) ([2]; both incubation systems (human liver microsomes and human skin S9), relative to the most abundant metabolite M8): most abundant metabolite in both incubation systems

- cleaved bond [4]: glycine1-E2, major
- cleaved bond [5]: glycine1-E2, major
Sequence: GEPPPGKPADDAGLV [BPC-157]
- fragment found [3]: BPC-157 (2–15) free acid (M8), major; also recorded: BPC-157 (2–13) free acid
- fragment found [4]: BPC-157 (1–14) free acid (M6), GEPPPGKPADDAGL; also recorded: BPC-157 (2–8) free acid (M1), EPPPGKP, major; also recorded: BPC-157 (1–8) free acid (M2), GEPPPGKP, major; also recorded: BPC-157 (1–13) free acid (M4), GEPPPGKPADDAG, major
- fragment found [5]: BPC-157 (1–14) free acid (M6), GEPPPGKPADDAGL; also recorded: BPC-157 (2–8) free acid (M1), EPPPGKP, major; also recorded: BPC-157 (1–8) free acid (M2), GEPPPGKP, major; also recorded: BPC-157 (1–13) free acid (M4), GEPPPGKPADDAG, major

Sequence: EPPPGKPADDAGL [BPC-157 (2–14) free acid (M5), BPC-157 (2–14) free acid]
- Detection of metabolite in the human skin S9 incubation system (in words) [1]: only detected in the human skin S9 incubation system

Sequence: EPPPGKPADDAG [BPC-157 (2–13) free acid (M3), BPC-157 (2–13) free acid]
- Detection of metabolite in the human liver microsome incubation system (in words) ([2]; human liver microsomes 1 mg/mL, NADPH, UHPLC-HRMS): only detected in the human liver microsome incubation system

- fragment found [5]: labeled M9
Sequence: GEPPPGKPADDAGLV [labeled BPC-157]
